One assay concerns USA100. The assay is described as follows: Synergy of ASU014 with antibiotics (MIC/FIC). It counts as cell-based, S. aureus. As to conditions: for Antibiotic MIC, Antibiotic Only: USA100; for Antibiotic MIC +¼ MIC (ASU014) / FIC +¼ MIC (ASU014): USA100, with ¼ MIC ASU014; for Antibiotic MIC +½ MIC (ASU014) / FIC +½ MIC (ASU014): USA100, with ½ MIC ASU014; for Antibiotic MIC +⅛ MIC (ASU014) / FIC +⅛ MIC (ASU014): USA100, with ⅛ MIC ASU014.

The test system of another assay is USA300-HI168. The assay is described as follows: Synergy of ASU014 with antibiotics (MIC/FIC). It counts as cell-based, S. aureus. As to conditions: for Antibiotic MIC, Antibiotic Only: USA300-HI168; for Antibiotic MIC +¼ MIC (ASU014) / FIC +¼ MIC (ASU014): USA300-HI168, with ¼ MIC ASU014; for Antibiotic MIC +½ MIC (ASU014) / FIC +½ MIC (ASU014): USA300-HI168, with ½ MIC ASU014.

A further assay relates to MSSA UAB637. The assay is described as follows: Synergy of ASU014 with antibiotics (MIC/FIC). It counts as cell-based, S. aureus.
Assay [1] deals with MRSA (USA400) BEI: HFH-30364. The experiment in a line: MIC against a panel of Gram-positive and Gram-negative bacteria. It counts as cell-based, Staphylococcus aureus.
The subject of another assay is USA300-LAC. The assay is described as follows: Synergy of ASU014 with antibiotics (MIC/FIC). It counts as cell-based, S. aureus.
In assay [2] the test system is MRSA (USA500) BEI: HFH-30522. The experiment in a line: MIC against a panel of Gram-positive and Gram-negative bacteria. It counts as cell-based, Staphylococcus aureus.
Assay [3] deals with MRSA (USA300) BEI: FOO3/HI168. The assay is described as above. It counts as cell-based, Staphylococcus aureus.
Another assay relates to MSSA. The assay is described as above. It counts as cell-based, S. aureus.
In the next assay the test system is MRSA (USA300-LAC). Described as above. It counts as cell-based, Staphylococcus aureus.
The next assay concerns P. aeruginosa PAO1. Described as above. It counts as cell-based. As to conditions: Pseudomonas aeruginosa.
The test system of assay [4] is MRSA (USA100) BEI: HFH-30123. Described as above. Conditions: Staphylococcus aureus. It counts as cell-based.
The mark [5] stands for this setting: USA300-HI168, with ⅛ MIC ASU014.
[6] abbreviates: Staphylococcus aureus, read-out: MIC.

Each structure is given as a SMILES string. In brackets after ≈: the same amount, converted by molar mass. Read-outs that look alike come from different tables or passages of the source. Where only a bound is given, the exact number is not on record here.

Usually MIC stands for the smallest concentration in the dilution series that meets the test's criterion for growth inhibition.

Turning to `CCOc1ccc2ccccc2c1C(=O)N[C@@H]1C(=O)N2[C@@H]1SC(C)(C)[C@@H]2C(=O)O` [Nafcillin, nafcillin], in the assay with USA100, the “Antibiotic MIC, Antibiotic Only” value was determined as 32 µg/mL; the “Antibiotic MIC +¼ MIC (ASU014)” value was 2 µg/mL; the “FIC +¼ MIC (ASU014)” value is 0.31; the “Antibiotic MIC +½ MIC (ASU014)” value stood at 2 µg/mL. Moreover, in the assay on USA100, the “FIC +½ MIC (ASU014)” value came to 0.56, the “Antibiotic MIC +⅛ MIC (ASU014)” value was found to be 8 µg/mL and the “FIC +⅛ MIC (ASU014)” value amounted to 0.38.

Regarding `[H]/N=C(/N)N[C@H]1[C@H](O)[C@@H](O)[C@H](O[C@@H]2O[C@@H](C)[C@](O)(C=O)[C@H]2O[C@@H]2O[C@@H](CO)[C@H](O)[C@@H](O)[C@@H]2NC)[C@@H](N/C(N)=N\[H])[C@@H]1O` [Streptomycin], in the assay with USA300-HI168, the “Antibiotic MIC, Antibiotic Only” value turned out to be 4 µg/mL; the “Antibiotic MIC +¼ MIC (ASU014)” value came to 2 µg/mL; the “FIC +¼ MIC (ASU014)” value is 0.75; the “Antibiotic MIC +½ MIC (ASU014)” value worked out at 0.5 µg/mL. Also, the “FIC +½ MIC (ASU014)” value in the assay on USA300-HI168 stood at 0.63. Besides, in the assay on USA300-HI168 (setting [5]), the “Antibiotic MIC +⅛ MIC (ASU014)” value was 4 µg/mL.

Consider `Cc1onc(-c2ccccc2)c1C(=O)N[C@@H]1C(=O)N2[C@@H]1SC(C)(C)[C@@H]2C(=O)O` [Oxa, oxacillin], for which the “Antibiotic MIC, Antibiotic Only” value amounted to 0.125 µg/mL in the assay on MSSA UAB637 (MSSA UAB637), 64 µg/mL in the assay with USA300-LAC and 2 µg/mL in the assay with USA300-HI168. The “Antibiotic MIC +¼ MIC (ASU014)” value in the assay on MSSA UAB637 (MSSA UAB637, with ¼ MIC ASU014) was 0.125 µg/mL; in the assay with USA300-LAC (with ¼ MIC ASU014) it was 4 µg/mL; in the assay with USA300-HI168 it was 0.125 µg/mL; in the assay on USA100 it was 8 µg/mL. Besides, the “Antibiotic MIC +½ MIC (ASU014)” value was 0.125 µg/mL in the assay with MSSA UAB637 (MSSA UAB637, with ½ MIC ASU014); 4 µg/mL in the assay with USA300-LAC (with ½ MIC ASU014); 0.063 µg/mL in the assay on USA300-HI168; 4 µg/mL in the assay with USA100. In addition, the “Antibiotic MIC +⅛ MIC (ASU014)” value stood at 0.125 µg/mL with MSSA UAB637 (MSSA UAB637, with ⅛ MIC ASU014); 8 µg/mL in the assay on USA300-LAC (with ⅛ MIC ASU014); 0.5 µg/mL in the assay with USA300-HI168 (setting [5]); 64 µg/mL in the assay with USA100. The MIC in [1] is 8 µg/mL (≈ 19.9 µM); in assay [2], 8 µg/mL (≈ 19.9 µM); in assay [3], 32 µg/mL (≈ 79.7 µM); against MSSA, less than 0.25 µg/mL; against MRSA (USA300-LAC) it was 64 µg/mL (≈ 159 µM). For the same compound, the “FIC +¼ MIC (ASU014)” value in the assay with USA300-LAC (with ¼ MIC ASU014), in the assay on USA300-HI168 and in the assay with USA100 was 0.31 each time. For the same compound, the results for the “FIC +½ MIC (ASU014)” value in the assay on USA300-LAC (with ½ MIC ASU014), in the assay with USA300-HI168 and with USA100 were 0.56, 0.53 and 0.53, respectively. For the same compound, the figures for the “FIC +⅛ MIC (ASU014)” value in the assay with USA300-LAC (with ⅛ MIC ASU014), in the assay on USA300-HI168 (setting [5]) and with USA100 were 0.25, 0.38 and 0.63, respectively.

`O=C(O)c1cn(C2CC2)c2cc(N3CCNCC3)c(F)cc2c1=O` [Cipro, Ciprofloxacin]: the MIC in assay [1] (setting [6]) is 0.5 µg/mL (≈ 1.51 µM); in assay [2] (setting [6]), more than 4 µg/mL; in assay [3] (setting [6]), 0.5 µg/mL (≈ 1.51 µM); against P. aeruginosa PAO1, 0.5 µg/mL (≈ 1.51 µM); in the assay with MSSA (setting [6]), 0.25 µg/mL (≈ 0.754 µM); in assay [4] it was more than 4 µg/mL. Further, in the assay on USA100, the “Antibiotic MIC, Antibiotic Only” value is more than 32 µg/mL. In addition, the “Antibiotic MIC +¼ MIC (ASU014)” value with USA100 was more than 32 µg/mL. Further, the “Antibiotic MIC +½ MIC (ASU014)” value in the assay with USA100 is more than 32 µg/mL. Besides, in the assay with USA100, the “Antibiotic MIC +⅛ MIC (ASU014)” value is more than 32 µg/mL.

In the case of `CC1(C)S[C@@H]2[C@H](NC(=O)[C@H](N)c3ccc(O)cc3)C(=O)N2[C@H]1C(=O)O` [Amoxicillin, amoxicillin], in the assay on USA100 (Staphylococcus aureus, MRSA / USA100, this MRSA strain, antibiotic alone), the minimum inhibitory concentration (MIC) was more than 256 µg/mL. For the same compound, in the assay on USA100, the “Antibiotic MIC, Antibiotic Only” value is more than 256 µg/mL; the “Antibiotic MIC +¼ MIC (ASU014)” value came out at 32 µg/mL; the “FIC +¼ MIC (ASU014)” value came out at 0.38; the “Antibiotic MIC +½ MIC (ASU014)” value is 4 µg/mL. In the assay with USA100, the “FIC +½ MIC (ASU014)” value was 0.52 and the “Antibiotic MIC +⅛ MIC (ASU014)” value is more than 256 µg/mL.
